Measurements reported in patent US20240018119A1, “CARBOXAMIDE DERIVATIVE AND PHARMACEUTICAL COMPOSITION COMPRISING SAME AS ACTIVE INGREDIENT FOR PREVENTING OR TREATING MENTAL ILLNESS” (DAEGU-GYEONGBUK MEDICAL INNOVATION FOUNDATION, priority 2020, published 2024).

Key:
Format in all cases: cell-based
serotonin transporter = molecular target: T1, serotonin transporter (Homo sapiens, UniProt P31645); assay: Serotonin reuptake inhibition in transporter-transfected HEK-293 cells ([3H]-5-HT); details: for Triple reuptake inhibition (Ratio %) SERT: compound 1 μM, [3H]-5-HT, relative to control without compound (100%), lower = more inhibition; for IC50: concentration at which Ratio % is 50%, 6 concentrations 1 nM to 1 μM, read-out: Triple reuptake inhibition (IC50, μM) SERT
T1 construct: expressed in transfected cells; host or cells: HEK-293
T1 sequence (P31645 whole entry): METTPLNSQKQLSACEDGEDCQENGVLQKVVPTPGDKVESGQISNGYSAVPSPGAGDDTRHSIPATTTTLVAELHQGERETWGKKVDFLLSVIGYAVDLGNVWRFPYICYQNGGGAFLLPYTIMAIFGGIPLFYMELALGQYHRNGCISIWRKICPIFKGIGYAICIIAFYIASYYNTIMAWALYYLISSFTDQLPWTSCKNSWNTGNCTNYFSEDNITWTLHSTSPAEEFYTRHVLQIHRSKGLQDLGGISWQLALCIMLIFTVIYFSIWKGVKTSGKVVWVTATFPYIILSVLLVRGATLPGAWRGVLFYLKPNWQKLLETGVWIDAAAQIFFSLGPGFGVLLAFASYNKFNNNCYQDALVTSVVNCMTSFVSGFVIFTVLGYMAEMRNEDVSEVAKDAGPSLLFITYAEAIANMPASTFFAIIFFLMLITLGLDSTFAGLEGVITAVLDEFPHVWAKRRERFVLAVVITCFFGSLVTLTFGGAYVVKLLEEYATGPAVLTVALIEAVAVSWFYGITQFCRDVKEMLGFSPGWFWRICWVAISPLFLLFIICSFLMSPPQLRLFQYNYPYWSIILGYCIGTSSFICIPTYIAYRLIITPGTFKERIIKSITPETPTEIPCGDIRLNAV
Method: (§1) To evaluate the reuptake inhibitory effect on dopamine, the dopamine transporter cDNA was transfected using the HEK-293 cell line, and then sub-seeded in a 24 well plate the next day. After removing the medium, each compound of the Examples or Comparative Examples diluted to 1 μM in uptake buffer was added to a concentration of 200 μl/well and cultured at 37° C. for 15 minutes. 100 μl of uptake buffer containing 20-30 nM [3H]-DA was added and cultured at 37° C. for 5 minutes. The reaction solution was quickly removed and washed three times with 1 ml ice-cold uptake buffer. After dissolving the resultant in 1% SDS (0.5 ml), the degree of binding of radioisotope-labeled dopamine to the transporter was measured.
(§2) For norepinephrine (NE) and serotonin (5-HT), the degree of binding of radioisotope-labeled norepinephrine or serotonin to the transporter was measured in the same manner as above, except that cells transfected with NE or 5-HT transporter cDNA were used and [3H]-NE or [3H]-5-HT was used as a substrate.
(§3) In addition, when evaluating the reuptake inhibitory effect on dopamine, norepinephrine, and serotonin, the same method was performed without treating each compound of the Examples or Comparative Examples as a control, the degree of binding of radioisotope-labeled dopamine, norepinephrine, and serotonin to the transporter was measured, and by using this as a standard (100%), the triple reuptake inhibitory effect was evaluated as a relative ratio (Ratio %). That is, in the control group, the binding of dopamine, norepinephrine, and serotonin to transporters is not inhibited, but when each compound of the Examples is treated and thus the binding is inhibited, the Patio % value decreases.
In addition, in the case of the compound of Comparative Example 1, IC50 was obtained by the same method as the Example Compounds.

dopamine transporter = molecular target: T2, dopamine transporter (Homo sapiens, UniProt Q01959); assay: Dopamine reuptake inhibition in transporter-transfected HEK-293 cells ([3H]-DA); details: for Triple reuptake inhibition (Ratio %) DAT: compound 1 μM, 20-30 nM [3H]-DA, relative to control without compound (100%), lower = more inhibition; for IC50: concentration at which Ratio % is 50%, 6 concentrations 1 nM to 1 μM, read-out: Triple reuptake inhibition (IC50, μM) DAT
T2 construct: expressed in transfected cells; host or cells: HEK-293
T2 sequence (Q01959 whole entry): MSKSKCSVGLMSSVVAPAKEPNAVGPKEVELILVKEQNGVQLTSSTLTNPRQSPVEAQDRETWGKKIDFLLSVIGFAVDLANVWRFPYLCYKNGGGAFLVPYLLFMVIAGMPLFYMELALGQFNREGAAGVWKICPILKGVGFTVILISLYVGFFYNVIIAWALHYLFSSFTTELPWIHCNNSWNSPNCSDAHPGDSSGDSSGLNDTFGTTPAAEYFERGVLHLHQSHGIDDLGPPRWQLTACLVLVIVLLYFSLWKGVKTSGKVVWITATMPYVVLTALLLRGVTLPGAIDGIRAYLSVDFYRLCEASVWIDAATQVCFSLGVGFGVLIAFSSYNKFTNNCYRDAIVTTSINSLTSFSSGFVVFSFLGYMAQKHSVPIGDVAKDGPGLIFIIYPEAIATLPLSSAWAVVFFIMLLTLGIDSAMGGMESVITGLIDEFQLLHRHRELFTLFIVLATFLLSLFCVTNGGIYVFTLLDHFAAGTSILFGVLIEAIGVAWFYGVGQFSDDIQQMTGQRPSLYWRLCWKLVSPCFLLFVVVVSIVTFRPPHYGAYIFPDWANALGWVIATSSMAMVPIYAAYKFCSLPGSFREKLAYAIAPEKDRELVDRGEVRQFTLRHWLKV
Method: as §1, §3
(§4) Meanwhile, the Patio % values were compared, and in the case of the compounds of Examples 6, 9, 10, 19, 20, 22, 24, 28, 30, 31, 32, 33, 35, 41, 42, 48, 49, 51, 55, 56, 59, 61, 63, 64, 65, 66, 74 and 76 with excellent reuptake inhibitory effects on dopamine, norepinephrine and serotonin, the concentration at which the Ratio % is 50% was calculated using a total of 6 concentrations (1 nM, 5 nM, 10 nM, 50 nM, 100 nM, and 1 μM) and expressed as IC50. In addition, in the case of the compound of Comparative Example 1, IC50 was obtained by the same method as the Example Compounds.

[1] = molecular target: T3, norepinephrine transporter (Homo sapiens, UniProt P23975); assay: Norepinephrine reuptake inhibition in transporter-transfected HEK-293 cells ([3H]-NE); details: for Triple reuptake inhibition (Ratio %) NET: compound 1 μM, [3H]-NE, relative to control without compound (100%), lower = more inhibition; for IC50: concentration at which Ratio % is 50%, 6 concentrations 1 nM to 1 μM, read-out: Triple reuptake inhibition (IC50, μM) NET
T3 construct: expressed in transfected cells; host or cells: HEK-293
T3 sequence (P23975 whole entry, species assumed): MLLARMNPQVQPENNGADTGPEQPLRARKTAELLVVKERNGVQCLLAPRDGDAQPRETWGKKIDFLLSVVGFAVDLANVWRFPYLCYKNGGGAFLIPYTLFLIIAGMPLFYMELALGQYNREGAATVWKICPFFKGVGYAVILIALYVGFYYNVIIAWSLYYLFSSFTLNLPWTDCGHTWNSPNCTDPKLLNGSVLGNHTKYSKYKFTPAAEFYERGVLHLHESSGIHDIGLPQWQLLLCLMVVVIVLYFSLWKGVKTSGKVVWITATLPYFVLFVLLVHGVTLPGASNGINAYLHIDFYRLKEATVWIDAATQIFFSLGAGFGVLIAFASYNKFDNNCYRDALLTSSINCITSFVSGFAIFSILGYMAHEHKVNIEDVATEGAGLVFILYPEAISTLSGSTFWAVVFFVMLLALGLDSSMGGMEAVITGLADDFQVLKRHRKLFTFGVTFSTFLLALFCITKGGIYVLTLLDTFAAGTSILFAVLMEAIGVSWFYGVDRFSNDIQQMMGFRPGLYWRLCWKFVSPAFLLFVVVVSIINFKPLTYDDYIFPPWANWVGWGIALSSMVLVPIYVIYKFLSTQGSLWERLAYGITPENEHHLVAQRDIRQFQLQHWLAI
Method: as §1, §2, §3, §4

Row | SMILES | Triple reuptake inhibition (Ratio %) SERT (serotonin transporter) [%] | IC50 (serotonin transporter) [µM] | Triple reuptake inhibition (Ratio %) DAT (dopamine transporter) [%] | IC50 (dopamine transporter) [µM] | Triple reuptake inhibition (Ratio %) NET [1] [%] | IC50 [1] [µM]
1 | CCCCOc1ccc2cc(C(=O)NCCN3CCC(Cc4ccccc4)CC3)[nH]c2c1 [Example 42, N-(2-(4-benzylpiperidin-1-yl)ethyl)-6-butoxy-1H-indol-2-carboxamide] | 46.64 | 0.68 | 45.67 | 0.338 | 44.53 | 0.171
2 | CC(CN1CCC(Cc2ccccc2)CC1)NC(=O)c1cc2ccccc2[nH]1 (stereo not drawn) [Example 43, N-(1-(4-benzylpiperidin-1-yl)propan-2-yl)-1H-indol-2-carboxamide] | 81.76 | – | 30.29 | – | 56.98 | –
3 | O=C(NC1CCC(Cc2ccccc2)CC1)c1cc2ccccc2[nH]1 (stereo not drawn) [Example 44, N-(4-benzylcyclohexyl)-1H-indol-2-carboxamide] | 94.19 | – | 73.05 | – | 85.48 | –
4 | O=C(NCCNC(=O)c1cc2ccccc2[nH]1)c1ccc2ccccc2c1 [Example 45, N-(2-(2-naphthamido)ethyl)-1H-indol-2-carboxamide] | 91.05 | – | 110.91 | – | 102.98 | –
5 | O=C(NCCN1CCC(Cc2ccccc2)CC1)c1cc2cc(OCc3ccccc3)ccc2[nH]1 [Example 46, 5-(benzyloxy)-N-(2-(4-benzylpiperidin-1-yl)ethyl)-1H-indol-2-carboxamide] | 42.91 | – | 77.49 | – | 110.55 | –
6 | O=C(NCCN1CCC(Cc2ccccc2)CC1)c1cc2cc(Cl)c(Cl)cc2[nH]1 [Example 47, N-(2-(4-benzylpiperidin-1-yl)ethyl)-5,6-dichloro-1H-indol-2-carboxamide] | 75.98 | – | 41.80 | – | 94.59 | –
7 | COc1cc2cc(C(=O)NCCN3CCC(Cc4ccc(Cl)c(Cl)c4)CC3)[nH]c2cc1OC [Example 48] | 5.27 | 0.123 | 2.88 | 0.028 | 9.75 | 0.398
8 | O=C(NCCN1CCC(Cc2ccccc2)CC1)c1cc2cc(F)ccc2[nH]1 [Example 49] | 62.50 | 1.47 | 24.67 | 0.138 | 26.73 | 0.561
9 | O=C(NCC(=O)N1CCC(Cc2ccccc2)CC1)c1cc2ccccc2[nH]1 [Example 50, N-(2-(4-benzylpiperidin-1-yl)-2-oxoethyl)-1H-indol-2-carboxamide] | 100.83 | – | 108.32 | – | 93.21 | –
10 | O=C(NCCN1CCC(Cc2ccc(Cl)c(Cl)c2)CC1)c1cc2cc(F)ccc2[nH]1 [Example 51, N-(2-(4-(3,4-dichlorobenzyl)piperidin-1-yl)ethyl)-5-fluoro-1H-indol-2-carboxamide] | 27.71 | 0.331 | 41.61 | 0.636 | 83.07 | –
11 | O=C(NCCn1ccc(-c2ccc(F)cn2)n1)c1cc2ccccc2[nH]1 [Example 52, N-(2-(3-(5-fluoropyridin-2-yl)-1H-pyrazol-1-yl)ethyl)-1H-indol-2-carboxamide] | 93.19 | – | 85.39 | – | 82.74 | –
12 | O=C(NC1(CN2CCC(Cc3ccccc3)CC2)CC1)c1cc2ccccc2[nH]1 [Example 53, N-(1-((4-benzylpiperidin-1-yl)methyl)cyclopropyl)-1H-indol-2-carboxamide] | 108.82 | – | 86.48 | – | 69.01 | –
13 | O=C(NCCNCc1ccc2ccccc2c1)c1cc2ccccc2[nH]1 [Example 54, N-(2-((naphthalen-2-ylmethyl)amino)ethyl)-1H-indol-2-carboxamide] | 84.69 | – | 79.32 | – | 92.95 | –
14 | O=C(NCCN1CCC(Cc2ccccc2)CC1)c1nc2ccccc2s1 [Example 55, N-(2-(4-benzylpiperidin-1-yl)ethyl)benzo[d]thiazol-2-carboxamide] | 53.01 | 3.01 | 39.32 | 2.64 | 57.47 | 2.48
15 | O=C(NCCN1CCC(Cc2ccccc2)CC1)c1cc2cccnc2[nH]1 [Example 56, N-(2-(4-benzylpiperidin-1-yl)ethyl)-1H-pyrrolol[2,3-b]pyridin-2-carboxamide] | 76.79 | – | 37.06 | 1.48 | 81.84 | –
16 | O=C(NCCN1CCC(Cc2ccccc2)CC1)C1Cc2ccccc2N1 (stereo not drawn) [Example 57, N-(2-(4-benzylpiperidin-1-yl)ethyl) indolin-2-carboxamide] | 77.95 | – | 60.52 | – | 124.77 | –
17 | O=C(NCCN1CCC(Cc2ccccc2)CC1)[C@H]1Cc2ccccc2N1 [Example 58, (R)—N-(2-(4-benzylpiperidin-1-yl)ethyl)indolin-2-carboxamide] | 105.84 | – | 66.26 | – | 82.39 | –
18 | COc1ccc2[nH]c(C(=O)NCCN3CCC(Cc4ccccc4)CC3)nc2c1 [Example 59, N-(2-(4-benzylpiperidin-1-yl)ethyl)-5-methoxy-1H-benzo[d]imidazol-2-carboxamide] | 45.80 | 0.198 | 17.60 | 0.198 | 43.43 | 0.257
19 | O=C(NCCN1CCC(Cc2ccccc2)CC1)c1nc2cc(F)ccc2s1 [Example 60, N-(2-(4-benzylpiperidin-1-yl)ethyl)-5-fluorobenzo(d)thiazol-2-carboxamide] | 53.40 | – | 68.95 | – | 50.81 | –
20 | O=C(NCCN1CCC(Cc2ccccc2)CC1)c1nc2ccccc2[nH]1 [Example 61, N-(2-(4-benzylpiperidin-1-yl)ethyl)-1H-benzo[d]imidazol-2-carboxamide] | 62.21 | 2.28 | 32.78 | 0.97 | 73.75 | 3.17
